Test results as given in patent US20230355613A1, “METHODS FOR TREATING PANCREATIC DUCTAL ADENOCARCINOMA” (HEALTH RESEARCH, INC., priority 2022, published 2023).

Columns and labels:
HPDE cells = test: 72-hour dose-response cell viability assay (CellTiter-Glo); assay type: cell-based; settings: Homo sapiens, HPDE non-transformed pancreatic epithelial cells
Description: (§1) PDAC cells are sensitive to chemical inhibition of CPSF3. CPSF3 was recently identified as the target for the small molecule JTE-607. JTE-607 is a prodrug that, when metabolized by the ester hydrolyzing enzyme carboxylesterase 1 (CES1), binds to CPSF3 and inhibits its catalytic activity, impairing the processing of newly synthesized mRNAs. As genetic depletion of CPSF3 attenuated PDAC cell proliferation (FIG. 1), it 2as hypothesized that pharmacologic inhibition of CPSF3 with JTE-607 could represent a novel therapeutic approach in PDAC. The sensitivity of multiple human pancreatic cell lines, both non-transformed and PDAC, to JTE-607 in a 72-hour dose-response cell viability assay was examined. […] To examine if sensitivity to CPSF3 inhibition was associated with proliferation rate, the relationship between cell line doubling time and JTE-607 sensitivity was assessed. […] Next, the effect of JTE-607 on cell proliferation by treating cells with increasing concentrations of JTE-607 and assessing cell viability in a time-dependent fashion (FIGS. 2C-2E) was determined. […] Finally, the effect of JTE-607 on colony formation in PDAC cell lines was tested. […] Therefore, JTE-607 selectively attenuates proliferation of PDAC cells over non-transformed pancreatic cells.
(§2) JTE-607 studies. For dose-response measurements, cells were seeded at a density of 1000 cells per well in a 96-well white plate. The next day, JTE-607 was titrated over a range of concentrations using the Tecan D300e Digital Dispenser and cell viability was measured 72 hours post drug titration using a CellTiter-Glo Luminescent Cell Viability Assay Kit (Promega). For cell proliferation experiments, cells were seeded at a density of 250 cells per well in a 96-well white plate. DMSO control or JTE-607 was dispensed at varying concentrations and proliferation was measured using CellTiter-Glo Assay at days 0, 2, 4 and 6. For clonogenicity experiments, cells were seeded at a concentration of 500 cells per well and treated with different concentrations of JTE-607. Cells were allowed to grow over a period of 11-14 days after which they were fixed in 10% formalin, stained with 0.2% Crystal Violet and images were obtained for analysis. Colony area was measured using ImageJ software. Data were normalized to DMSO control data points.

Panc1 cells [1] = test: as above; assay type: cell-based; settings: Homo sapiens, PANC-1, Panc1 PDAC cells
Description: as §1, §2

HPNE cells [2] = test: as above; assay type: cell-based; settings: Homo sapiens, HPNE non-transformed pancreatic epithelial cells
Description: as §1, §2

PancPat CAFs = test: as above; assay type: cell-based; settings: Fibroblast, PancPat CAFs human cancer associated fibroblasts
Description: as §1, §2

C7 CAF = test: as above; assay type: cell-based; settings: Fibroblast, C7 CAF human cancer associated fibroblasts
Description: as §1, §2

HPNE cells [3] = test: Micrococcal Nuclease (MNase) assay of chromatin condensation; assay type: cell-based, human; settings: compared with DMSO-treated cells
Protocol: Therefore, a Micrococcal Nuclease (MNase) assay was performed to assess relative chromatin condensation. In this assay, protein-free DNA is digested by MNase, producing DNA fragmentation patterns that are indicators of whether chromatin is in a condensed or relaxed state. […] To assess chromatin destabilization in a living cell, the HeLa-TI cell line model that has a silenced GFP reporter within a heterochromatic region of the genome was utilized. […] Therefore, GFP expression in HeLa-TI cells was monitored upon JTE-607 treatment by both fluorescence microscopy and flow cytometry.
Micrococcal digestion. Micrococcal Nuclease (MNase) was performed as previously described. Briefly, cells were trypsinized, washed with 1×RSB buffer (10 mM Tris HCL, pH 7.6; 15 mM NaCl; 1.5 mM MgCl2) and pelleted at 1000 rpm for 4 minutes at room temperature. Cell pellets were resuspended in 1×RSB buffer with 1% TritonX-100, homogenized with a loose pestle (5 strokes) and centrifuged for 5 minutes at 2000 rpm at 4° C. Pellets were washed two times with 1 ml of buffer A (10 mM Tris HCL, pH 7.6; 15 mM NaCl; 60 mM KCl; 0.34 M Sucrose; 0.1% B-mercaptoethanol; 0.15 mM Spermine; 0.5 mM Spermidine; 0.25 mM PMSF) and nuclei were pelleted at 160 g for 10 minutes at 4° C. Nuclei were resuspended in 1.5 mL of buffer A supplemented with 1 mM of CaCl2). Nuclear suspensions (500 μL) were digested with 200 U/mL Micrococcal nuclease at 37° C. at different time points.

Panc1 cells [4] = test: Western blot of histone protein levels; assay type: cell-based, human; settings: dose- and time-dependent
[5] = system: C-reactive protein, IL-10 and IL-1ra; settings: in humans; cited from earlier work
Panc1 cells [6] = test: Cell cycle analysis (propidium iodide FACS); assay type: cell-based, human; settings: within 24 hours
Protocol: (§3) Finally, we sought to determine how JTE-607-mediated depletion of RD histones led to defects in cell viability. As RD histones are required for cell cycle progression, we assessed the effects of JTE-607 on cell cycle distribution. […] In contrast, JTE-607 arrested Panc1 and MiaPaCa2 PDAC cells in S-phase of the cell cycle within 24 hours (FIGS. 7A and 7B). To corroborate the impact of CPSF3 knockdown on cell cycle, CPSF3 was transiently knocked-down with siRNA in Panc1 and HPNE cells (FIGS. 13D, 7C). CPSF3 knockdown induced cell cycle arrest in Panc1 cells with minimal effect on HPNE cells (FIGS. 7D and 7E). However, unlike CPSF3 inhibition-induced cell cycle arrest at S-phase, CPSF3 knockdown cells arrested at G2. […] To more specifically investigate the timing and extent of S-phase arrest upon JTE-607 treatment, BrdU incorporation was examined in a time-dependent manner (FIG. 7F). […] This is in support of previous reports where histone defects slow the progression of cells during S-phase. Therefore, JTE-607 destabilizes chromatin and attenuates PDAC cell proliferation through S-phase cell cycle arrest.
(§4) Cell cycle analysis. Cells were trypsinized and resuspended in 1×PBS, then fixed with ice-cold 70% ethanol for 1 hour at −20° C. Cells were then washed with cold 1×PBS and incubated with RNaseA (200 μg/ml) at 37° C. for 1 hour. Propidium iodide (40 μg/ml) was then added, incubated for 1 hour in the dark and analyzed by FACS at 488 nm. Data were analyzed by FCS express software (v7.06.0015).

HPNE cells [7] = test: Cell cycle analysis (propidium iodide FACS); assay type: cell-based, human
Protocol: as §3, §4

MiaPaCa2 cells = test: Cell cycle analysis (propidium iodide FACS); assay type: cell-based, human; settings: within 24 hours
Protocol: as §3, §4

[8] = system: human acute myeloid leukemia (AML) and Ewing's sarcoma cells; settings: in vitro; cited from earlier work

In the case of `CCOC(=O)[C@H](Cc1ccccc1)NC(=O)c1cc(Cl)c(OCCN2CCN(C)CC2)c(Cl)c1O` [JTE-607], the IC50 (HPDE cells) is reported as 60.1 µM, the IC50 (Panc1 cells [1]) is reported as 2.16 µM and the IC50 (HPNE cells [2]) is reported as 130 µM. For the same compound, the IC50 (PancPat CAFs) was 114 µM, the IC50 (C7 CAF) was 70 µM and the “chromatin digestion by MNase” value (HPNE cells [3]) was “no chromatin digestion”. The “H3 and H2B protein levels” value (Panc1 cells [4]) was “reduced both H3 and H2B protein levels”, the “endotoxin-induced production of C-reactive protein, IL-10 and IL-1ra” value [5] was “inhibited” and the “cell cycle arrest phase” value (Panc1 cells [6]) was “S-phase”. For the same compound, the cell cycle distribution (HPNE cells [7]) was “no impact on cell cycle distribution”, the “cell cycle arrest phase” value (MiaPaCa2 cells) was “S-phase” and the apoptosis [8] was “induces apoptosis”.
